Test results published in patent US20150284381A1, “AMINO-PYRIDINE-CONTAINING SPLEEN TYROSINE KINASE (SYK) INHIBITORS” (MERCK SHARP & DOHME CORP., priority 2012, published 2015).
pIC50: −log10 of the molar value.

Molecular target: T1, recombinant human GST-Syk (Homo sapiens, UniProt P43405)
T1 construct: purchased Carna Biosciences 08-176
Experiment: Homogeneous Time-Resolved Fluorescence (HTRF) assay for the recombinant human Syk enzyme
Type: biochemical
Details: recombinant human GST-Syk 5 pM, ATP 25 μM, 45 min at rt, read-out: rhSyk
Experimental: Homogeneous Time-Resolved Fluorescence (HTRF) Assay for the Recombinant Human Syk Enzyme
A recombinant GST-hSyk fusion protein was used to measure potency of compounds to inhibit human Syk activity. The recombinant human GST-Syk (Carna Biosciences #08-176) (5 pM nominal concentration) was incubated with various concentrations of the inhibitor diluted in DMSO (0.1% final concentration) for 10 minutes at rt in 15 mM Tris-HCl (pH 7.5), 0.01% tween 20, 2 mM DTT in 384 well plate format. To initiate the reaction the biotinylated substrate peptide (250 nM final concentration) that contains the phosphorylation site for Syk was added with magnesium (5 mM final concentration) and ATP (25 μM final concentration). Final volume of the reaction was 10 μL. Phosphorylation of the peptide was allowed to proceed for 45′ at rt. To quench the reaction and detect the phosphorylated product, 2 nM of a Europium-anti-phosphotyrosine antibody (Perkin Elmer #AD0161) and 70 nM SA-APC (Perkin-Elmer #CR130-100) were added together in 15 mM Tris pH 7.5, 40 mM EDTA, 0.01% tween 20. Final volume of the quenching solution was 10 μL. The resulting HTRF signal was measured after 30 minutes on a EnVision (Perkin-Elmer) reader using a time-resolved fluorescence protocol. IC50 was determined following 10-dose titration (10 μM to 0.508 nM) and four parameter logistic curve fitting using an assay data analyzer.

SMILES | pIC50
Cc1cc(Nc2cc(C(F)(F)F)ccn2)nc(-c2cnc(C3(O)CCCc4cc(C(=O)O)c(Cl)cc43)s2)c1 (single isomer, unassigned) [Example 1E, (R or S)-3-chloro-5-hydroxy-5-[5-(4-methyl-6-{[4-(trifluoromethyl)pyridin-2-yl]amino}pyridin-2-yl)-1,3-thiazol-2-yl]-5,6,7,8-tetrahydronaphthalene-2-carboxylic acid] | 8.94
Cc1cc(Nc2cc(C(F)F)ccn2)nc(-c2cnc([C@@]3(O)CCc4cc(C(=O)O)ccc43)s2)c1 [Example 2i, (1R)-1-[5-(6-{[4-(difluoromethyl)pyridin-2-yl]amino}-4-methylpyridin-2-yl)-1,3-thiazol-2-yl]-1-hydroxy-2,3-dihydro-1H-indene-5-carboxylic acid] | 9.89
Cc1cc(Nc2cc(C3CCCC(C)C3)ccn2)nc(-c2cnc([C@@]3(O)CCCc4cc(C(=O)O)ccc43)s2)c1 (stereo partly drawn) [Example 3A, (5R)-5-hydroxy-5-[5-(4-methyl-6-{[4-(3-methylcyclohexyl)pyridin-2-yl]amino}pyridin-2-yl)-1,3-thiazol-2-yl]-5,6,7,8-tetrahydronaphthalene-2-carboxylic acid] | 8.74
Cc1cc(Nc2cc(C(F)(F)F)ccn2)nc(-c2cnc(C3(O)CCCc4c3ccc(C(=O)O)c4F)s2)c1 (single isomer, unassigned) [Example 1i, (R or S)-1-fluoro-5-hydroxy-5-[5-(4-methyl-6-{[4-(trifluoromethyl)pyridin-2-yl]amino}pyridin-2-yl)-1,3-thiazol-2-yl]-5,6,7,8-tetrahydronaphthalene-2-carboxylic acid] | 8.66
Cc1cc(Nc2cc(-c3cn[nH]c3)ccn2)nc(-c2cnc(C3(O)CCCc4cc(C(=O)O)ccc43)s2)c1 (single isomer, unassigned) [Example 4B-2, 5-Hydroxy-5-[5-(4-methyl-6-{[4-(1H-pyrazol-4-yl)pyridin-2-yl]amino}pyridin-2-yl)-1,3-thiazol-2-yl]-5,6,7,8-tetrahydronaphthalene-2-carboxylic acid] | 9.10
Cc1cc(Nc2cc(-c3cn[nH]c3)ccn2)nc(-c2cnc(C3(O)CCCc4cc(C(=O)O)ccc43)s2)c1 (single isomer, unassigned) [Example 4B-1, 5-Hydroxy-5-[5-(4-methyl-6-{[4-(1H-pyrazol-4-yl)pyridin-2-yl]amino}pyridin-2-yl)-1,3-thiazol-2-yl]-5,6,7,8-tetrahydronaphthalene-2-carboxylic acid] | 8.92
Cc1cc(Nc2cc(-c3c[nH]nn3)ccn2)nc(-c2cnc([C@@]3(O)CCCc4cc(C(=O)N(C)C)ccc43)s2)c1 [Example 6A, (5R)-5-hydroxy-N,N-dimethyl-5-[5-(4-methyl-6-{[4-(1H-1,2,3-triazol-4-yl)pyridin-2-yl]amino}pyridin-2-yl)-1,3-thiazol-2-yl]-5,6,7,8-tetrahydronaphthalene-2-carboxamide] | 9.14
Cc1cc(Nc2cc(-c3cn[nH]c3)ccn2)nc(-c2cnc([C@@]3(O)CCc4cc(C(=O)O)ccc43)s2)c1 [Example 5A, (1R)-1-hydroxy-1-[5-(4-methyl-6-{[4-(1H-pyrazol-4-yl)pyridin-2-yl]amino}pyridin-2-yl)-1,3-thiazol-2-yl]-2,3-dihydro-1H-indene-5-carboxylic acid] | 10.40
CCC(CC)c1ccnc(Nc2cc(C)cc(-c3cnc([C@@]4(O)CCCc5cc(C(=O)O)ccc54)s3)n2)c1 [Example 3C, (5R)-5-[5-(6-{[4-(1-ethylpropyl)pyridin-2-yl]amino}-4-methylpyridin-2-yl)-1,3-thiazol-2-yl]-5-hydroxy-5,6,7,8-tetrahydronaphthalene-2-carboxylic acid] | 9.30
Cc1cc(Nc2cc(C(C)F)ccn2)nc(-c2cnc(C3(O)CCCc4cc(C(=O)O)ccc43)s2)c1 (single isomer, unassigned) [Example 8D, 5-(5-(6-((4-(1-Fluoroethyl)pyridin-2-yl)amino)-4-methylpyridin-2-yl)thiazol-2-yl)-5-hydroxy-5,6,7,8-tetrahydronaphthalene-2-carboxylic acid] | 10.00
CCc1ccnc(Nc2cc(C)cc(-c3cnc([C@@]4(O)CCCc5cc(C(=O)O)ccc54)s3)n2)c1 [Example 2F, (5R)-5-(5-{6-[(4-ethylpyridin-2-yl)amino]-4-methylpyridin-2-yl}-1,3-thiazol-2-yl)-5-hydroxy-5,6,7,8-tetrahydronaphthalene-2-carboxylic acid] | 9.70
Cc1ccnc(Nc2cc(C)cc(-c3cnc([C@@]4(O)CCc5cc(C(=O)O)ccc54)s3)n2)c1 [Example 2A, (1R)-1-hydroxy-1-(5-{4-methyl-6-[(4-methylpyridin-2-yl)amino]pyridin-2-yl}-1,3-thiazol-2-yl)-2,3-dihydro-1H-indene-5-carboxylic acid] | 9.82
Cc1cc(Nc2cc(C(F)(F)F)ccn2)nc(-c2cnc(C3(O)CCc4cc(C(=O)O)c(F)cc43)s2)c1 (single isomer, unassigned) [Example 1D, (R or S)-6-fluoro-1-hydroxy-1-[5-(4-methyl-6-{[4-(trifluoromethyl)pyridin-2-yl]amino}pyridin-2-yl)-1,3-thiazol-2-yl]-2,3-dihydro-1H-indene-5-carboxylic acid] | 9.17
CCc1ccnc(Nc2cc(C)cc(-c3cnc([C@@]4(O)CCc5cc(C(=O)O)ccc54)s3)n2)c1 [Example 2B, (1R)-1-(5-{6-[(4-ethylpyridin-2-yl)amino]-4-methylpyridin-2-yl}-1,3-thiazol-2-yl)-1-hydroxy-2,3-dihydro-1H-indene-5-carboxylic acid] | 9.77
Cc1cc(Nc2cc(C(C)F)ccn2)nc(-c2cnc(C3(O)CCCc4cc(C(=O)O)ccc43)s2)c1 (single isomer, unassigned) [Example 8B, 5-(5-(6-((4-(1-Fluoroethyl)pyridin-2-yl)amino)-4-methylpyridin-2-yl)thiazol-2-yl)-5-hydroxy-5,6,7,8-tetrahydronaphthalene-2-carboxylic acid] | 10.00
Cc1cc(Nc2cc(-c3cn[nH]c3)ccn2)nc(-c2cnc(C3(O)CCCc4cc(C(=O)N(C)C)ccc43)s2)c1 (single isomer, unassigned) [Example 4C-1, 5-Hydroxy-N,N-dimethyl-5-[5-(4-methyl-6-{[4-(1H-pyrazol-4-yl)pyridin-2-yl]amino}pyridin-2-yl)-1,3-thiazol-2-yl]-5,6,7,8-tetrahydronaphthalene-2-carboxamide] | 8.98
CCCc1ccnc(Nc2cc(C)cc(-c3cnc([C@@]4(O)CCc5cc(C(=O)O)ccc54)s3)n2)c1 [Example 3D, (1R)-1-hydroxy-1-(5-{4-methyl-6-[(4-propylpyridin-2-yl)amino]pyridin-2-yl}-1,3-thiazol-2-yl)-2,3-dihydro-1H-indene-5-carboxylic acid] | 10.10
Cc1cc(Nc2cc(C3CC3)ccn2)nc(-c2cnc(C3(O)CCCc4cc(C(=O)O)c(F)cc43)s2)c1 (single isomer, unassigned) [Example 1H, (R or S)-5-(5-{6-[(4-cyclopropylpyridin-2-yl)amino]-4-methylpyridin-2-yl}-1,3-thiazol-2-yl)-3-fluoro-5-hydroxy-5,6,7,8-tetrahydronaphthalene-2-carboxylic acid] | 11.70
Cc1cc(Nc2cc(C(F)(F)F)ccn2)nc(-c2cnc(C3(O)CCc4cc(C(=O)O)c(F)cc43)s2)c1 (single isomer, unassigned) [Example 1C, (R or S)-6-fluoro-1-hydroxy-1-[5-(4-methyl-6-{[4-(trifluoromethyl)pyridin-2-yl]amino}pyridin-2-yl)-1,3-thiazol-2-yl]-2,3-dihydro-1H-indene-5-carboxylic acid] | 9.41
COc1ccnc(Nc2cc(C)cc(-c3cnc([C@@]4(O)CCc5cc(C(=O)O)ccc54)s3)n2)c1 [Example 2G, (1R)-1-hydroxy-1-(5-{6-[(4-methoxypyridin-2-yl)amino]-4-methylpyridin-2-yl}-1,3-thiazol-2-yl)-2,3-dihydro-1H-indene-5-carboxylic acid] | 9.80
Cc1cc(Nc2cc(-c3cn[nH]c3)ccn2)nc(-c2cnc(C3(O)CCCc4cc(C(=O)N(C)C)ccc43)s2)c1 (single isomer, unassigned) [Example 4C-2, 5-Hydroxy-N,N-dimethyl-5-[5-(4-methyl-6-{[4-(1H-pyrazol-4-yl)pyridin-2-yl]amino}pyridin-2-yl)-1,3-thiazol-2-yl]-5,6,7,8-tetrahydronaphthalene-2-carboxamide] | 6.12
CCCOc1ccnc(Nc2cc(C)cc(-c3cnc([C@@]4(O)CCc5cc(C(=O)O)ccc54)s3)n2)c1 [Example 2H, (1R)-1-hydroxy-1-(5-{4-methyl-6-[(4-propoxypyridin-2-yl)amino]pyridin-2-yl}-1,3-thiazol-2-yl)-2,3-dihydro-1H-indene-5-carboxylic acid] | 10.22
CCOc1ccnc(Nc2cc(C)cc(-c3cnc([C@@]4(O)CCc5cc(C(=O)O)ccc54)s3)n2)c1 [Example 2D, (1R)-1-(5-{6-[(4-ethoxypyridin-2-yl)amino]-4-methylpyridin-2-yl}-1,3-thiazol-2-yl)-1-hydroxy-2,3-dihydro-1H-indene-5-carboxylic acid] | 9.13
